Earlier results in patent publication US20170157075A1, “Edible Compositions and Methods for Promoting Alpha Brain Waves” (priority 2015, published 2017).

How the values were obtained:
[1] = daily 20 mg for every 10 pounds of body weight; controlled study
[2] = single 100 mg nighttime dose; placebo-controlled study
[3] = 300 mg per day
[4] = 300 mg per day; controlled trial
[5] = not given; remark: listed apart in the source
[6] = estimated
[7] = 600-900 mg daily; twelve weeks
[8] = not given; remark: listed apart in the source

| Structure (SMILES) | response of children with migraines and sleep problems [1] | side effects or interactions reported during the studies (cited 5-HTP studies, 100-900 mg daily) | effect of high doses on brain dopamine (high doses, over time (Hinz et al. 2011, 2012)) | doses with no toxicity reports (humans, Examine.com summary) [mg/kg bodyweight] | effect on duration and depth of sleep [2] | effect in depression [3] | effect on symptoms of fibromyalgia [4] | share of subjects with migraine attacks reduced in frequency, severity and duration ([5]; 400 mg per day, well-controlled trial) [%] | reduction of migraine headache attacks versus prescription medications ([5]; 600 mg per day, adults, two double blind studies) | share of an oral dose that ends up producing serotonin in the body [6] [%] | average weight loss [7] [lbs] | therapeutic effect on cluster of mood symptoms versus placebo ([8]; 6 grams daily for 17 days, three consecutive cycles, 37 patients treated, 34 placebo) | withdrawals due to drug side effects ([8]; 6 grams daily, 71 women include placebo group) |
| --- | --- | --- | --- | --- | --- | --- | --- | --- | --- | --- | --- | --- | --- |
| N[C@@H](Cc1c[nH]c2ccc(O)cc12)C(=O)O [5-HTP, 5-hydroxytryptophan] | responded well | mild gastrointestinal disturbances in some people, mild nausea, heartburn, flatulence, feelings of fullness, and rumbling sensations | can lead over time to depletion of brain dopamine | ≤ 50 | sufficient to improve the duration and depth of sleep | often effective | effective in reducing many symptoms of fibromyalgia | 90 | as effective as prescription medications | 70 | 11 |  |  |
| N[C@@H](Cc1c[nH]c2ccccc12)C(=O)O [L-tryptophan] |  |  |  |  |  |  |  |  |  |  |  | significant (p=0.004) therapeutic effect | 1 of 71 women |
